Values of other authors in paper PMC2803438 (Current Chemical Genomics, 2008).

What was measured:
Hsc70 [1] = conditions: read-out: IC50 for binding to Hsc70
Hsc70 [2] = conditions: read-out: Kd, binding to Hsc70; moderate affinity

| IC50 (Hsc70 [1]) [µM] | Kd (Hsc70 [2]) [µM] | Compound |
| --- | --- | --- |
| 2.8 |  | NIVRKKK |
|  | 0.5 | N=C(N)NCCCCCCC(=O)NC(O)C(=O)NCCCCNCCCN (centres unmarked) [15-deoxyspergualin] |
